Assay results as given in patent US5322944A, “Process for the synthesis of enantiomers of 3-aminochroman compounds” (Adir et Compagnie, priority 1991, dated 1994).

Columns and labels:
5HT1 A receptors = biological target: T1, 5HT1 A receptors (Homo sapiens, UniProt P08908); test: conventional binding techniques, 5HT1 A receptors; conditions: for Ki: affinity expressed as K 0.5 (Ki) for the 5HT1 A receptors, conventional binding techniques, called K 0.5 for the (+) isomer, Ki for the (-) isomer; for selectivity (5HT1 A versus D2 receptors): ratio of D2 to 5HT1 A affinity constants
T1 sequence (P08908 1-422): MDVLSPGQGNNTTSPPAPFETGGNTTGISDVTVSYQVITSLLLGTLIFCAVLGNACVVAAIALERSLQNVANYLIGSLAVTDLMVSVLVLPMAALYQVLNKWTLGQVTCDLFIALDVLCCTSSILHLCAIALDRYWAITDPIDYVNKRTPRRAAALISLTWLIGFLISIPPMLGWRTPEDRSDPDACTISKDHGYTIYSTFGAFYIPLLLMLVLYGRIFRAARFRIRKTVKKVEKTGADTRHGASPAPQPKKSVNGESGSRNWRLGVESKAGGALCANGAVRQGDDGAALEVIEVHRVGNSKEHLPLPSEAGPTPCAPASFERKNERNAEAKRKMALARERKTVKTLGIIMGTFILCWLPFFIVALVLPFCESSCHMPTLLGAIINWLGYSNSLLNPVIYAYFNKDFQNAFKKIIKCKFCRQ
Text: (§1) If conventional binding techniques are used, the affinity of the (+) isomer of the compound of formula (II), expressed as K 0.5, is 2×10^-10for the 5HT1 A receptors and 2×10^-8 for the D2 receptors, which is equivalent to a selectivity of the order of 100.

D2 receptors = D2 receptors (Homo sapiens, UniProt P14416); test: conventional binding techniques, D2 receptors; conditions: called K 0.5 for the (+) isomer, read-out: affinity expressed as K 0.5 (Ki) for the D2 receptors
Chain of D2 receptors (P14416 whole entry): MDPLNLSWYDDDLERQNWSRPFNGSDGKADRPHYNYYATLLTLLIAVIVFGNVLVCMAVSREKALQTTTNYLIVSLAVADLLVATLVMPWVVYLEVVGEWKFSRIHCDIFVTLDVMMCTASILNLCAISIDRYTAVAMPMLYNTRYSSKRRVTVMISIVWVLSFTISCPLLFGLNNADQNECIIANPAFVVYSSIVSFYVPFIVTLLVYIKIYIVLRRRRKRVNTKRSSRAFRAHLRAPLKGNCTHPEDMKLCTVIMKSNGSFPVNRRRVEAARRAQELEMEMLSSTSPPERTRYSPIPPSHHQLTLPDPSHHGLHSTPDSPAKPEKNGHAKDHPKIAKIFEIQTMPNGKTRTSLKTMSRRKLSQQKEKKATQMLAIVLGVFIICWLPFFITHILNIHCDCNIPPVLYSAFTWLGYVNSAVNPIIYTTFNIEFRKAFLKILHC
Text: as §1

CCCN(CCCCN1C(=O)CC2(CCCC2)CC1=O)C1COc2cccc(OC)c2C1 (single isomer, unassigned; (+)) [(+) isomer of the compound of formula (II)]
affinity for the 5HT1 A receptors relative to that of the (-) isomer (5HT1 A receptors; (+) isomer compared with (-) isomer): about 10 times
specificity relative to the (-) isomer (5HT1 A receptors; (+) isomer compared with (-) isomer, 5HT1 A versus D2): 20 times
Ki (5HT1 A receptors): 0.2 nM
selectivity (5HT1 A versus D2 receptors) (5HT1 A receptors): ~100
Ki (D2 receptors): 20 nM

CCCN(CCCCN1C(=O)CC2(CCCC2)CC1=O)C1COc2cccc(OC)c2C1 (single isomer, unassigned; (-)) [(-) isomer]
Ki (5HT1 A receptors): 2 nM
selectivity (5HT1 A versus D2 receptors) (5HT1 A receptors): ~5
Ki (D2 receptors): 10 nM
